Tests used:
[1] = system: CAL-120, human breast adenocarcinoma cells; experiment: Proliferation assay CAL-120 (crystal violet, 4 days); format: cell-based; settings: Homo sapiens, CAL-120, 96 h, CAL-120 cells, median, read-out: Prolif-CAL-120, IC50-[mol/l] (median)
In short: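 Cells seeded at 4,000/well in medium with 10% FCS; after 24 h, compounds added at 0.01-10 µmol/L (0.1% DMSO) for 4 days. Glutaraldehyde-fixed, crystal violet-stained, absorbance at 595 nm normalized to zero-point plate (0%) and untreated cells (100%); IC50 by 4-parameter fit.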

CDK12/CycK = CDK12/CycK (Homo sapiens, UniProt Q9NYV4); experiment: CDK12/CycK high ATP kinase assay (TR-FRET, 2 mM ATP); format: biochemical; settings: 2 mM ATP (high ATP); median; read-out: CDK12/CyclinK, 2 mM ATP (high ATP), IC50-[mol/l] (median)
Sequence of CDK12/CycK (Q9NYV4 with tags, fused parts or gaps): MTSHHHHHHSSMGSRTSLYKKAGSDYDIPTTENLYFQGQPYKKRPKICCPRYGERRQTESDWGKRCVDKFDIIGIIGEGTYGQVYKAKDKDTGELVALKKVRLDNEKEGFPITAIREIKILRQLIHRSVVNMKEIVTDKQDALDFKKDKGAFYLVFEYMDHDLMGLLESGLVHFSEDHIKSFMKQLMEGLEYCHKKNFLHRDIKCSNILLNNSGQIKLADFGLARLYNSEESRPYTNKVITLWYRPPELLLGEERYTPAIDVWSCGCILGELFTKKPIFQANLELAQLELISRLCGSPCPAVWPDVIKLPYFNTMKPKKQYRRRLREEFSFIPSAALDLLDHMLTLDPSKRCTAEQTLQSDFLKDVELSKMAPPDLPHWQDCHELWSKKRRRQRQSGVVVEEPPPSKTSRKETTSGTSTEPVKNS
Sequence of CDK12/CycK (O75909 1-300 partner limits assumed): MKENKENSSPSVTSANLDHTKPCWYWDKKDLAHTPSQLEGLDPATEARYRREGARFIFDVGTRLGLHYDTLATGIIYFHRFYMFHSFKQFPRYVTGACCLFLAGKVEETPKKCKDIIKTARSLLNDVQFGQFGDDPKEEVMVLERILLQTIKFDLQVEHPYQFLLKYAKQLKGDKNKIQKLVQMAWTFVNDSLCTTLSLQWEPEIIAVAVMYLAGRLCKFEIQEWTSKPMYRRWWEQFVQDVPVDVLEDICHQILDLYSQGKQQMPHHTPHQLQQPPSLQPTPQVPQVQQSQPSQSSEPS
In short: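 His-tagged human CDK12/CycK (~0.75 nM) pre-incubated 15 min with compound, then 60 min at 22 °C with 2 mM ATP and 1 µM biotinylated peptide (HEPES pH 7.5, 20 mM MgCl2). EDTA stop; phospho-Ser62 antibody/Eu anti-rabbit and streptavidin-XL665 TR-FRET, 665/620 nm ratio normalised to give IC50.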

[2] = system: BRCA1 mRNA expression in MDA-MB-231 cells; experiment: qRT-PCR assay: BRCA1 mRNA expression in MDA-MB-231; format: cell-based, human; settings: Homo sapiens, MDA-MB-231, Inhibition of BRCA1 mRNA expression in MDA-MB-231 cells; median; read-out: RTqPCR-MDA-MB-231, IC50, BRCA1 (median)
In short: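 Cells were seeded at 200,000 cells/well, left 24 h, then exposed continuously to test substances for 24 h. Total RNA (600 ng) was reverse-transcribed to cDNA and amplified by qPCR, and transcript levels were normalised to GAPDH housekeeping expression.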

Compound | IC50 [1] [nM] | IC50 (CDK12/CycK) [nM] | IC50 [2] [nM]
OC[C@H]1CCCCN1c1nc(NCc2nc3ccccc3[nH]2)n2ncc(Br)c2n1 [Example 60, [(2R)-1-(4-{[(1H-benzimidazol-2-yl)methyl]amino}-8-bromopyrazolo[1,5-a][1,3,5]triazin-2-yl)piperidin-2-yl]methanol] | 25.7 | 1860 | 45.3
Fc1ccc2[nH]c(CNc3nc(N4CCOCC4)nc4c(-c5nccs5)cnn34)nc2c1F [Example 413, N-[(4,5-difluoro-1H-benzimidazol-2-yl)methyl]-2-(morpholin-4-yl)-8-(1,3-thiazol-2-yl)pyrazolo [1,5-a][1,3,5]triazin-4-amine] | 69.9 | > 20000 | 82.7
C[C@H]1COCCN1c1nc(NCc2nc3ccccc3[nH]2)n2ncc(Br)c2n1 [Example 57, N-[(1H-benzimidazol-2-yl)methyl]-8-bromo-2-[(3S)-3-methylmorpholin-4-yl]pyrazolo[1,5-a][1,3,5]triazin-4-amine] | 3.14 | 1040 | 1.52
CN1CCN(c2nc(NCc3nc4c(F)c(F)ccc4[nH]3)n3ncc(CC(F)(F)F)c3n2)CC1 [Example 437, N-[(4,5-difluoro-1H-benzimidazol-2-yl)methyl]-2-(4-methylpiperazin-1-yl)-8-(2,2,2-trifluoroethyl) pyrazolo[1,5-a][1,3,5]triazin-4-amine] | 10.9 | > 20000 | 6.19

Next, values leading:

IC50 [1] [nM] | IC50 (CDK12/CycK) [nM] | IC50 [2] [nM] | Compound
2.61 | 583 | 0.738 | Fc1ccc2[nH]c(CNc3nc(N4CCOCC4)nc4c(-c5cncs5)cnn34)nc2c1F.O=C(O)C(F)(F)F [Example 442, trifluoroacetic acid N-[(4,5-difluoro-1H-benzimidazol-2-yl)methyl]-2-(morpholin-4-yl)-8-(1,3-thiazol-5-yl)pyrazolo[1,5-a][1,3,5]triazin-4-amine]
7.69 | 4180 | 3.39 | O=C(O)C(F)(F)F.c1ccc2[nH]c(CNc3nc(N4CCOCC4)nc4c(-c5cncs5)cnn34)nc2c1 [Example 441, trifluoroacetic acid-N-[(1H-benzimidazol-2-yl)methyl]-2-(morpholin-4-yl)-8-(1,3-thiazol-5-yl)pyrazolo[1,5-a][1,3,5]triazin-4-amine (1/1)]

Source: patent US20230117034A1, “PYRAZOLOTRIAZINES” (Bayer Aktiengesellschaft, priority 2019, published 2023)
